The results in this text go back to patent US20230416199A1, “INHIBITORS OF AMINO ACID TRANSPORT” (ICAHN SCHOOL OF MEDICINE AT MOUNT SINAI, priority 2020, published 2023).

Common to all, as to assay type: cell-based
The target of assay [1] is T1, hASCT2 (Homo sapiens, UniProt Q15758).
T1 construct: expressed in transfected cells; host or cells: HEK293 (ATCC CRL-11268), transient transfection
T1 sequence (Q15758 1-541): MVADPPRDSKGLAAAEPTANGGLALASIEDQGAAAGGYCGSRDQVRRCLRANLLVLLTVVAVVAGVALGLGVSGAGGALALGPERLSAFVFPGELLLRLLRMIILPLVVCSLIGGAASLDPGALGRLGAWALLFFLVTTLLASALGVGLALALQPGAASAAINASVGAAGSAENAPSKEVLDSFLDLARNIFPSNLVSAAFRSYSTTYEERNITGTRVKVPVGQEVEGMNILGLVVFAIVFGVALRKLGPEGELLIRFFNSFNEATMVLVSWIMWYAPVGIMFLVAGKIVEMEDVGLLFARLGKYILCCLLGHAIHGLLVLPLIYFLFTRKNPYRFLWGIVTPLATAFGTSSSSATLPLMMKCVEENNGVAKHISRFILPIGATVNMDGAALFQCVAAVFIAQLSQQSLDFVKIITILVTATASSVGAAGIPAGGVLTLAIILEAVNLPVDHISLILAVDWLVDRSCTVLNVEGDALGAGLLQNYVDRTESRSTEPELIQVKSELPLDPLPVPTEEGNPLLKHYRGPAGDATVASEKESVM
In words: Competition experiment with alanine, hASCT2. Particulars: first entry of the cell; for Ki: read-out: Competition Expt (h/rASCT2 Ki): hASCT2 Ki.

Assay [2] addresses T2, rASCT2 (Rattus norvegicus, UniProt D3ZJ25).
T2 construct: expressed in transfected cells; host or cells: HEK293 (ATCC CRL-11268), transient transfection
T2 sequence (D3ZJ25 1-555): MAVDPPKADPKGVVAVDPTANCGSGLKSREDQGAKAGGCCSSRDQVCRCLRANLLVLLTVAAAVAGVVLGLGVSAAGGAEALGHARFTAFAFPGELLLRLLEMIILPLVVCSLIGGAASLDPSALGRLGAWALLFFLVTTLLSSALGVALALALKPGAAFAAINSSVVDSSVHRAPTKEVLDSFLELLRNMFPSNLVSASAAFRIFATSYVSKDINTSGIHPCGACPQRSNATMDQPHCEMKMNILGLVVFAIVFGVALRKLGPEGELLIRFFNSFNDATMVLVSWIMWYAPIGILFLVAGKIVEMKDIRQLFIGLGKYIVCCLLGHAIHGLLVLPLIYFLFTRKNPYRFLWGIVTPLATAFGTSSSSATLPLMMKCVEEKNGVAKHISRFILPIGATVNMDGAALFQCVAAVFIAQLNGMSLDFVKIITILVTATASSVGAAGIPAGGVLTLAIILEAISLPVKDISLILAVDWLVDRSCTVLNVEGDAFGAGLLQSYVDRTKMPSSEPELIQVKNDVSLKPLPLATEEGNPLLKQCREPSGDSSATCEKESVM
The assay can be described thus: Electrophysiology (whole-cell current recording) of transfected HEK293 cells, rASCT2. Conditions: Table 3, dihydroxyproline derivatives; for Ki: read-out: Ki All DNA: rASCT2. The protocol:
(§1) Human embryonic kidney 293 (HEK293, ATCC CRL-11268) cells were cultured in DMEM media supplemented with 10% (v v) fetal bovine serum (FBS), 2 mM glutamine, 1% penicillin streptomycin solution, 1 mM sodium pyruvate and non-essential amino acids. Cells were maintained at 37° C. in a fully humidified atmosphere containing 5% CO2. rASCT2, hASCT2, hASCT1, EAAT1, EAAT2, EAAC1, EAAT5 and YFP complementary DNAs were each used to transiently transfect HEK293 using POLYPLUS Jet-prime transfection reagent. Cells were analyzed using electrophysiological techniques 24-40 hours after transfection.
(§2) Stock solutions of inhibitor was prepared in dimethyl sulfoxide (DMSO) up to 100 mM. Dilutions to working concentrations were made using external buffer. […] For rASCT2, hASCT2 and hASCT1, external buffer contained 140 mM NaCl, 2 mM MgCl2, 2 mM CaCl2), and 10 mM HEPES, pH 7.40 while internal pipette solution comprised of 130 mM NaSCN, 2 mM MgCl2, 10 mM EGTA, 10 mM HEPES and 10 mM alanine, pH 7.40. For specificity experiments with EAAT1, EAAT2, EAAC1 and EAAT5, internal solution contained 10 mM glutamate instead of alanine. Compounds were applied to HEK293 cells expressing DNA of interest suspended from a current recording electrode in whole cell configuration through a rapid solution exchange device. Cells are immersed in external buffer bath used to dissolve the inhibitors. The open pipette resistance was between 3 and 6 MΩ. Series resistance was not compensated in these experiments due to relatively small currents. Currents traces were recorded using an Adams and List EPC7 amplifier and digitized using a Molecular Devices Digidata A/D converter.
(§3) Linear and nonlinear curve fitting of the experimental data were analyzed using MicroCal Origin software. Nonlinear dose-response relationships were fitted with a Michaelis-Menten-like equation to obtain apparent Ki values in the absence of substrate (see TABLE 2 for Ki values). The figures show representative current traces and dose-response curves for hACST2 and rASCT2, used to obtain Ki values in TABLE 2 for compound SN 40. At least four experiments were performed with at least three different cells. Error bars in all graphs, e.g., in FIG. 1B and FIG. 1C and tables (Ki values) represent mean±SD.

Another assay addresses T3, hASCT1 (Homo sapiens, UniProt P43007).
T3 construct: expressed in transfected cells; host or cells: HEK293 (ATCC CRL-11268), transient transfection
T3 sequence (P43007 1-532): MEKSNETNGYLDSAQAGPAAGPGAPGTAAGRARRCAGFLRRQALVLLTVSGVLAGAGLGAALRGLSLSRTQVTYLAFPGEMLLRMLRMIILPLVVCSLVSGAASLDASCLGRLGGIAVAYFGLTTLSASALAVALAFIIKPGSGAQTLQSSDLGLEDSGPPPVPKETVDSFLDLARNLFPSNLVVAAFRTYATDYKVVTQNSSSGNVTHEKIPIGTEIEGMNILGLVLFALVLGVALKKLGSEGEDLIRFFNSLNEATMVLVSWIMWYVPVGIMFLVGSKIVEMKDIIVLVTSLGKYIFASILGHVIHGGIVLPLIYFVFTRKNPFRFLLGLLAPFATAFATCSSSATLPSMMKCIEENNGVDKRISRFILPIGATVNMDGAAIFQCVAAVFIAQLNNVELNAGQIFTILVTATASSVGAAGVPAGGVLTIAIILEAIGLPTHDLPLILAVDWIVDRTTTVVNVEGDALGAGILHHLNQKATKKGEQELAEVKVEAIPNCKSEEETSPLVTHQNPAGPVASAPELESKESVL
The assay can be described thus: Electrophysiology (whole-cell current recording) of transfected HEK293 cells, hASCT1. Conditions: Table 3, dihydroxyproline derivatives; for Ki: read-out: Ki All DNA: hASCT1. The protocol: as §1, §2, §3

The target of assay [3] is T1, hASCT2. In words: Electrophysiology (whole-cell current recording) of transfected HEK293 cells, hASCT2. Particulars: Table 3, dihydroxyproline derivatives; for Ki: read-out: Ki All DNA: hASCT2. The protocol:
as §1, §2, §3

For assay [4], the target named is T2, rASCT2. In words: Competition experiment with alanine, rASCT2. Particulars: second entry of the cell; for Ki: read-out: Competition Expt (h/rASCT2 Ki): rASCT2 Ki.
The target in another assay is T4, EAAT2 (Homo sapiens, UniProt P43004).
T4 construct: expressed in transfected cells; host or cells: HEK293 (ATCC CRL-11268), transient transfection
The assay can be described thus: Electrophysiology specificity experiment in transfected HEK293 cells, EAAT2. Conditions: Table 3, dihydroxyproline derivatives; read-out: Ki All DNA: EAAT2. As for the experimental part: as §1, §2, §3

Structures are written as SMILES.

T4 sequence (P43004 whole entry, species assumed): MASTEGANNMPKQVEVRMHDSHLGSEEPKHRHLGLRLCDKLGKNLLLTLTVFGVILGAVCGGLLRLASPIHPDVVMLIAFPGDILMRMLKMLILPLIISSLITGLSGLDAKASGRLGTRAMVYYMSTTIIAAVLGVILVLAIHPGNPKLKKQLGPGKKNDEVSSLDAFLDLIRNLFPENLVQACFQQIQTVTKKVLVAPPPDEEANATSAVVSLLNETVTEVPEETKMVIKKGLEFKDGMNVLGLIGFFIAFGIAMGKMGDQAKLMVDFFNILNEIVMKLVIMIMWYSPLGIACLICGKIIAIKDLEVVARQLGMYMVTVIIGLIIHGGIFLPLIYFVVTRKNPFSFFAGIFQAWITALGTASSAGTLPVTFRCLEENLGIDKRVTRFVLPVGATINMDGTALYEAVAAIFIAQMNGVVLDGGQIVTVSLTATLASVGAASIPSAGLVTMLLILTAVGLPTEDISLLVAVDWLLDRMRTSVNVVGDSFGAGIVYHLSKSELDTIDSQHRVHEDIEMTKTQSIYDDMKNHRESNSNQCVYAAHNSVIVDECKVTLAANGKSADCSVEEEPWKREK

Regarding `O=C(OC[C@@]1(O)CN[C@H](C(=O)O)C1)c1ccc(-c2ccccc2)cc1` [SN57], the “Competition Expt % block (given as a decimal): hASCT2” value (“Competition Expt % block … hASCT2” below) at hASCT2 [1] (1 mM ala) was “full”. Further, the Ki at hASCT2 [1] (1 mM ala) was found to be 40 µM; at rASCT2 [2] it was 3.87 µM; at hASCT1, 6.61 µM; on hASCT2 [3], 4.55 µM.
With `O=C(OC[C@@]1(O)CN[C@H](C(=O)O)C1)c1ccc(-c2ccc(F)cc2)cc1` [SN58], at hASCT2 [1] (1 mM ala), the “Competition Expt % block … hASCT2” value is “full” and the Ki was 19.2 µM. Besides, the “Ki All DNA: rASCT2” value on rASCT2 [2] is on record as “Very Low”. Moreover, the Ki on hASCT1 came out at 3.06 µM. At hASCT2 [3], the “Ki All DNA: hASCT2” value was “Very Low”. In addition, on rASCT2 [4] (1 mM ala), the “Competition Expt % block (given as a decimal): rASCT2” value is given as “full” and the Ki came out at 12.8 µM.
On to `O=C(OC[C@]1(O)CN[C@H](C(=O)O)C1)c1ccc(-c2ccc(F)cc2)cc1` [SN66], for which the Ki on hASCT2 [1] (1 mM ala) stood at 28 µM; at rASCT2 [2], 27.6 µM; on hASCT2 [3] it was 15.5 µM; at rASCT2 [4] (1 mM ala), 49 µM.
Consider `O=C(OC[C@]1(O)CN[C@H](C(=O)O)C1)c1ccc(-c2ccc(C(F)(F)F)cc2)cc1` [SN67], for which, at hASCT2 [1] (0.5 mM ala, decimal fraction), the “Competition Expt % block … hASCT2” value was determined as 0. Moreover, the “Ki All DNA: hASCT1” value on hASCT1 is reported as “NA, NC”. For the same compound, on hASCT2 [3], the Ki is 115 µM. Moreover, at rASCT2 [4] (0.5 mM ala, decimal fraction), the “Competition Expt % block (given as a decimal): rASCT2” value was found to be 0.
As for `O=C(O[C@]1(CO)CN[C@H](C(=O)O)C1)c1ccc(-c2ccccc2)cc1` [SN73], the “Competition Expt % block … hASCT2” value at hASCT2 [1] (1 mM ala) is “full”. In addition, the Ki was determined as 22.3 µM at hASCT2 [1] (1 mM ala), 21.4 µM on EAAT2, 8.03 µM on rASCT2 [2] and 4.25 µM at hASCT2 [3].
